We go through nine compounds from patent US10717749B2, “Macrocyclic sulfondiimine compounds” (BAYER PHARMA AKTIENGESELLSCHAFT, priority 2015, dated 2020).

One test concerns DU145. In words: Proliferation assay, crystal violet. Type of test: cell-based. The conditions noted are these: Homo sapiens, DU-145, 96 h; DU145, 4 days; read-out: Inhibition of DU145 cell proliferation IC50. As for the experimental part: (§1) Cultivated tumour cells (HeLa, human cervical tumour cells, ATCC CCL-2; NCI—H460, human non-small cell lung carcinoma cells, ATCC HTB-177; DU 145, hormone-independent human prostate carcinoma cells, ATCC HTB-81; HeLa-MaTu-ADR, multidrug-resistant human cervical carcinoma cells, EPO-GmbH Berlin; Caco-2, human colorectal carcinoma cells, ATCC HTB-37; B16F10, mouse melanoma cells, ATCC CRL-6475) were plated at a density of 3,500 cells/well (DU145), 3,000 cells/well (HeLa-MaTu-ADR), 1,500 cells/well (NCI—H460), 3,000 cells/well (HeLa), 2,000 cells/well (Caco-2), or 1,000 cells/well (B16F10) in a 96-well multititer plate in 150 μL of their respective growth medium supplemented 10% fetal calf serum. After 24 hours, the cells of one plate (zero-point plate) were stained with crystal violet (see below), the test substances were added in various concentrations (0 μM, as well as in the range of 0.0001-10 μM) employing HP Dispenser. The cells were incubated for 4 days in the presence of test substances. Cell proliferation was determined by staining the cells with crystal violet: the cells were fixed by adding 20 μl/measuring point of an 11% glutaric aldehyde solution for 15 minutes at room temperature. After three washing cycles of the fixed cells with water, the plates were dried at room temperature. The cells were stained by adding 100 μl/measuring point of a 0.1% crystal violet solution DU 145, Caco-2, HeLa (pH 4.5) B16F10, NCI—H460, HeLa-MaTu-ADR. After three washing cycles of the stained cells with water, the plates were dried at room temperature. The dye was dissolved by adding 100 μl per measuring point of a 10% acetic acid solution. The extinction was determined by photometry at a wavelength of 595/550/620 nm depending on the intensity of coloration, usually at 595 nm. The change of cell number, in percent, was calculated by normalization of the measured values to the extinction values of the zero-point plate (=0%) and the extinction of the untreated (0 μM) cells (=100%). The IC50 values (inhibitory concentration at 50% of maximal effect) were determined by means of a 4 parameter fit.

Another test relates to NCI-H460. The test can be described thus: Proliferation assay, crystal violet. The test is classed as cell-based. The conditions noted are these: Homo sapiens, 96 h; NCI-H460, 4 days; read-out: Inhibition of NCI-H460 cell proliferation IC50. As for the experimental part:
as §1

Another test relates to B16F10. The test can be described thus: Proliferation assay, crystal violet. The test is classed as cell-based. The conditions noted are these: Mus musculus, B16-F10, 96 h; B16F10, 4 days; read-out: Inhibition of B16F10 cell proliferation IC50. As for the experimental part: as §1
The next test deals with HeLa. In words: Proliferation assay, crystal violet. The conditions noted are these: Homo sapiens, 96 h, 4 days, read-out: Inhibition of HeLa cell proliferation IC50. Type of test: cell-based. As for the experimental part: as §1
The next test has as its system Caco-2. In words: Proliferation assay, crystal violet. Type of test: cell-based. The conditions noted are these: Homo sapiens, 96 h; Caco-2, 4 days; read-out: Inhibition of Caco-2 cell proliferation IC50. As for the experimental part:
as §1

The target of a further test is T1, CDK9/CycT1 (Homo sapiens, UniProt P50750).
T1 construct: Recombinant full-length His-tagged human CDK9 and CycT1; His; purchased Invitrogen PV4131; host or cells: insect cells
The test can be described thus: CDK9/CycT1 kinase assay (Method 1a, TR-FRET, 10 μM ATP). The test is classed as biochemical. The conditions noted are these: for pIC50: Method 1a, 10 μM ATP; for Selectivity CDK9 over CDK2: IC50 (CDK2)/IC50 (CDK9): Methods 1a and 2a, minimal values. An excerpt: 1a. CDK9/CycT1 Kinase Assay:
CDK9/CycT1-inhibitory activity of compounds of the present invention was quantified employing the CDK9/CycT1 TR-FRET assay as described in the following paragraphs:
Recombinant full-length His-tagged human CDK9 and CycT1, expressed in insect cells and purified by Ni-NTA affinity chromatography, were purchased from Invitrogen (Cat. No PV4131). As substrate for the kinase reaction biotinylated peptide biotin-Ttds-YISPLKSPYKISEG (C-terminus in amid form) was used which can be purchased e.g. from the company JERINI Peptide Technologies (Berlin, Germany). For the assay 50 nl of a 100 fold concentrated solution of the test compound in DMSO was pipetted into a black low volume 384 well microtiter plate (Greiner Bio-One, Frickenhausen, Germany), 2 μl of a solution of CDK9/CycT1 in aqueous assay buffer [50 mM Tris/HCl pH 8.0, 10 mM MgCl2, 1.0 mM dithiothreitol, 0.1 mM sodium ortho-vanadate, 0.01% (v/v) Nonidet-P40 (Sigma)] were added and the mixture was incubated for 15 min at 22° C. to allow pre-binding of the test compounds to the enzyme before the start of the kinase reaction. Then the kinase reaction was started by the addition of 3 μl of a solution of adenosine-tri-phosphate (ATP, […]=> final conc. in the 5 μl assay volume is 10 μM) and substrate (1.67 μM=> final conc. in the 5 μl assay volume is 1 μM) in assay buffer and the resulting mixture was incubated for a reaction time of 25 min at 22° C. The concentration of CDK9/CycT1 was adjusted depending of the activity of the enzyme lot and was chosen appropriate to have the assay in the linear range, typical concentrations were in the range of 1 μg/mL. The reaction was stopped by the addition of 5 μl of a solution of TR-FRET detection reagents (0.2 μM streptavidine-XL665 [Cisbio Bioassays, Codolet, France] and 1 nM anti-RB(pSer807/pSer811)-antibody from BD Pharmingen [#558389] and 1.2 nM LANCE EU-W1024 labeled anti-mouse IgG antibody [Perkin-Elmer, product no. AD0077]) in an aqueous EDTA-solution (100 mM EDTA, 0.2% (w/v) bovine serum albumin in 100 mM HEPES pH 7.5).
The resulting mixture was incubated 1 h at 22° C. to allow the formation of complex between the phosphorylated biotinylated peptide and the detection reagents. Subsequently the amount of phosphorylated substrate was evaluated by measurement of the resonance energy transfer from the Eu-chelate to the streptavidine-XL. Therefore, the fluorescence emissions at 620 nm and 665 nm after excitation at 350 nm was measured in a HTRF reader, e.g. a Rubystar (BMG Labtechnologies, Offenburg, Germany) or a Viewlux (Perkin-Elmer). The ratio of the emissions at 665 nm and at […] was taken as the measure for the amount of phosphorylated substrate. The data were normalised (enzyme reaction without inhibitor=0% inhibition, all other assay components but no enzyme=100% inhibition).

pIC50: −log10 of the molar value.

T1 sequence (P50750 whole entry): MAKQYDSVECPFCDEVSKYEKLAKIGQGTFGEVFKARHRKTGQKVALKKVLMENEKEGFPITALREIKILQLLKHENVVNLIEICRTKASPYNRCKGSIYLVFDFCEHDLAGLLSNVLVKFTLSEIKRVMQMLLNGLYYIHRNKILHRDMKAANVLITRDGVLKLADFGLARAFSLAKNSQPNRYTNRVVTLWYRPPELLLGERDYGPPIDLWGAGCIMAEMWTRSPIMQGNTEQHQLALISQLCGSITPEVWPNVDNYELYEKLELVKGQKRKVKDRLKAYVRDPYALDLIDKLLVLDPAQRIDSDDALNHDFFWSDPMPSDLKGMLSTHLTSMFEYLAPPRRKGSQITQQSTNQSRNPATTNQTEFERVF
T1 sequence (O60563 whole entry partner): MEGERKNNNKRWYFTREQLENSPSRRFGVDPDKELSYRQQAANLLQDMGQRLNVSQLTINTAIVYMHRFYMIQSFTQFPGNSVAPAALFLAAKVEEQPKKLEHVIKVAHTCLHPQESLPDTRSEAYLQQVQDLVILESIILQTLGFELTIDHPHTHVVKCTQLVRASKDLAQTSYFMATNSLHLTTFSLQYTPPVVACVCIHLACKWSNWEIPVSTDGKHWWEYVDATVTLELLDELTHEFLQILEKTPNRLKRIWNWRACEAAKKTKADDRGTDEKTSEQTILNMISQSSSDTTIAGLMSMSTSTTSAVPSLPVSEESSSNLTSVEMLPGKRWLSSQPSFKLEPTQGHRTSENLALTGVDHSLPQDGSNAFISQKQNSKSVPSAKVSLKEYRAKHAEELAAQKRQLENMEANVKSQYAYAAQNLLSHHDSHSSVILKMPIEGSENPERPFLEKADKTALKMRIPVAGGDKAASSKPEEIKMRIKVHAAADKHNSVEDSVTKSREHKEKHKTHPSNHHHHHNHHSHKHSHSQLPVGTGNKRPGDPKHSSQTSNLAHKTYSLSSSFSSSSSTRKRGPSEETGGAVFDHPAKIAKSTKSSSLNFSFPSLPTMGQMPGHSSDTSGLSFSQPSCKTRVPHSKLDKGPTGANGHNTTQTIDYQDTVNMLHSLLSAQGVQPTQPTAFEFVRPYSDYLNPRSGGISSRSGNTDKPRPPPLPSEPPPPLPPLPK

In the case of `CS(=N)(=N)Cc1cc2cc(c1)OCCCCOc1cc(F)ccc1-c1nc(ncc1F)N2` [Example 5, 16,20-difluoro-9-[(S-methylsulfonodiimidoyl)methyl]-2,3,4,5-tetrahydro-12H-13,17-(azeno)-11,7-(metheno)-1,6,12,14-benzodioxadiazacyclononadecine], the pIC50 is 7.44 in the test on DU145; 7.42 with NCI-H460; 7.30 in the test on B16F10; 7.59 with HeLa; 7.45 with Caco-2; 8.47 on CDK9/CycT1. For the same compound, the “Selectivity CDK9 over CDK2: IC50 (CDK2)/IC50 (CDK9)” value (“Selectivity CDK9 over CDK2: IC50” for short) on CDK9/CycT1 stood at 27.2.
As to `CS(=N)(Cc1cc2nc(c1)OCCCOc1cc(F)ccc1-c1cc(ncc1F)N2)=NC#N` (racemic) [Example 3, (rac)-[{[15,19-difluoro-3,4-dihydro-2H,11H-10,6-(azeno)-12,16-(metheno)-1,5,11,13-benzodioxadiazacyclooctadecin-8-yl]methyl}(imino)methyl-λ^6-sulfanylidene]cyanamide], at CDK9/CycT1, the pIC50 was 8.54 and the “Selectivity CDK9 over CDK2: IC50” value is given as 2.1.
For `CS(=N)(Cc1cc2nc(c1)OCCCOc1cc(F)ccc1-c1cc(ncc1F)N2)=NCCCO` (racemic) [Example 2, (rac)-3-(2-{[15,19-difluoro-3,4-dihydro-2H,11H-10,6-(azeno)-12,16-(metheno)-1,5,11,13-benzodioxadiazacyclooctadecin-8-yl]methyl}-2-methyl-2λ^6-diazathia-1,2-dien-1-yl)propan-1-ol], the pIC50 with DU145 was 7.53; with NCI-H460, 7.05; in the test on B16F10 it was 7.43; in the test on HeLa, 7.99; in the test with Caco-2, 7.54; against CDK9/CycT1, 8.54. For the same compound, the “Selectivity CDK9 over CDK2: IC50” value on CDK9/CycT1 was 7.8.
For the compound `CS(=N)(=N)Cc1cc2cc(c1)OCCCCOc1c(ccc(F)c1F)-c1nc(ncc1F)N2` [Example 6, 16,20,21-trifluoro-9-[(S-methylsulfonodiimidoyl)methyl]-2,3,4,5-tetrahydro-12H-13,17-(azeno)-11,7-(metheno)-1,6,12,14-benzodioxadiazacyclononadecine], the pIC50 is 6.44 with DU145; 6.43 in the test on NCI-H460; 6.17 in the test on B16F10; 6.50 in the test on HeLa; 6.49 in the test on Caco-2; 8.09 on CDK9/CycT1. On CDK9/CycT1, the “Selectivity CDK9 over CDK2: IC50” value was 174.
For `CS(=N)(=N)Cc1cc2cc(c1)OCCCCOc1c(F)cccc1-c1nc(ncc1F)N2` [Example 7, 16,21-difluoro-9-[(S-methylsulfonodiimidoyl)methyl]-2,3,4,5-tetrahydro-12H-13,17-(azeno)-11,7-(metheno)-1,6,12,14-benzodioxadiazacyclononadecine], the pIC50 in the test with DU145 is 6.40; with NCI-H460 it was 6.35; with B16F10, 6.11; in the test with HeLa it was 6.48; with Caco-2, 6.40; against CDK9/CycT1 it was 8.25. Besides, the “Selectivity CDK9 over CDK2: IC50” value on CDK9/CycT1 is 209.
With `CS(=N)(=N)Cc1cc2nc(c1)OCCCOc1cc(F)ccc1-c1cc(ncc1F)N2` [Example 1, 15,19-difluoro-8-[(S-methylsulfonodiimidoyl)methyl]-3,4-dihydro-2H,11H-10,6-(azeno)-12,16-(metheno)-1,5,11,13-benzodioxadiazacyclooctadecine], the pIC50 with DU145 was 8.04; in the test with NCI-H460 it was 7.98; in the test on B16F10, 7.84; with HeLa it was 8.55; in the test on Caco-2, 7.79; against CDK9/CycT1, 8.48. The “Selectivity CDK9 over CDK2: IC50” value on CDK9/CycT1 is reported as 5.0.
`CS(=N)(=N)Cc1cc2nc(c1C#N)OCCCOc1cc(F)ccc1-c1cc(ncc1F)N2` [Example 8, 15,19-difluoro-8-[(S-methylsulfonodiimidoyl)methyl]-3,4-dihydro-2H,11H-10,6-(azeno)-12,16-(metheno)-1,5,11,13-benzodioxadiazacyclooctadecine-7-carbonitrile]: the pIC50 with DU145 is 7.95; in the test with B16F10, 7.29; with HeLa, 8.26; in the test with Caco-2, 7.37; against CDK9/CycT1, 8.43. Also, on CDK9/CycT1, the “Selectivity CDK9 over CDK2: IC50” value is 19.2.
Turning to `CN=S(C)(=N)Cc1cc2nc(c1)OCCCOc1cc(F)ccc1-c1cc(ncc1F)N2` (racemic) [Example 4, (rac)-8-[(N,S-dimethylsulfonodiimidoyl)methyl]-15,19-difluoro-3,4-dihydro-2H,11H-10,6-(azeno)-12,16-(metheno)-1,5,11,13-benzodioxadiazacyclooctadecine], at CDK9/CycT1, the pIC50 is 8.04 and the “Selectivity CDK9 over CDK2: IC50” value is given as 4.1.
Take `CS(=N)(Cc1cc2cc(c1)OCCCCOc1cc(F)ccc1-c1nc(ncc1F)N2)=NC1CC1` (racemic) [Example 9, (rac)-9-[(N-cyclopropyl-S-methylsulfonodiimidoyl)methyl]-16,20-difluoro-2,3,4,5-tetrahydro-12H-13,17-(azeno)-11,7-(metheno)-1,6,12,14-benzodioxadiazacyclononadecine]: the pIC50 in the test with DU145 is 6.93; in the test with NCI-H460, 7.25; in the test with B16F10, 7.04; with HeLa, 7.50; in the test with Caco-2 it was 7.32; on CDK9/CycT1 it was 8.44. Also, the “Selectivity CDK9 over CDK2: IC50” value on CDK9/CycT1 was found to be 39.7.
